Data from ChEMBL document CHEMBL1201862, “PubChem BioAssay data set” (2004).
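Compound exposure: 48 hours, 5 concentrations, 96-well plates. GI50 is the concentration that inhibits growth by half.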 Active and inactive are the calls of the source. Cut-off read from the data, not from the text of the source: active = GI50 up to about 1.1 µM and inactive = higher.

Tests used:
Assay in all cases: NCI anticancer screen, dose series, 48 h
OVCAR-3 = tested on: OVCAR-3
A549 = tested on: A549
IGROV-1 = tested on: IGROV-1
HCT-116 = tested on: HCT-116
COLO 205 = tested on: COLO 205
DMS-114 = tested on: DMS-114
SF-539 = tested on: SF-539
HOP-18 = tested on: HOP-18
CAKI-1 = tested on: CAKI-1
SK-MEL-5 = tested on: SK-MEL-5
MDA-MB-435 = tested on: MDA-MB-435
SNB-19 = tested on: SNB-19
HL-60 = tested on: HL-60
RPMI-8226 = tested on: RPMI-8226
DMS-273 = tested on: DMS-273
OVCAR-4 = tested on: OVCAR-4
TK-10 = tested on: TK-10
SW-620 = tested on: SW-620
HT-29 = tested on: HT-29
EKVX = tested on: EKVX
ACHN = tested on: ACHN
DU-145 = tested on: DU-145
UACC-257 = tested on: UACC-257
HCC 2998 = tested on: HCC 2998
SF-295 = tested on: SF-295
SK-OV-3 = tested on: SK-OV-3
NCI/ADR-RES = tested on: NCI/ADR-RES
SK-MEL-2 = tested on: SK-MEL-2
SNB-75 = tested on: SNB-75
Malme-3M = tested on: Malme-3M
NCI-H522 = tested on: NCI-H522
KM-20L2 = tested on: KM-20L2
XF498 = tested on: XF498
NCI-H23 = tested on: NCI-H23
MDA-MB-231 = tested on: MDA-MB-231
LXFL 529 = tested on: LXFL 529
BT-549 = tested on: BT-549
KM12 = tested on: KM12
MDA-N = tested on: MDA-N
SN12C = tested on: SN12C
Hs-578T = tested on: Hs-578T
MOLT-4 = tested on: MOLT-4
T47D = tested on: T47D
UACC-62 = tested on: UACC-62
U-251 = tested on: U-251
SF-268 = tested on: SF-268
PC-3 = tested on: PC-3
SK-MEL-28 = tested on: SK-MEL-28
NCI-H226 = tested on: NCI-H226
SR = tested on: SR
CCRF-CEM = tested on: CCRF-CEM
HCT-15 = tested on: HCT-15
LOX IMVI = tested on: LOX IMVI
M14 = tested on: M14
SNB-78 = tested on: SNB-78
RXF 393 = tested on: RXF 393
UO-31 = tested on: UO-31
K562 = tested on: K562
786-0 = tested on: 786-0
HOP-92 = tested on: HOP-92
MCF7 = tested on: MCF7
DLD-1 = tested on: DLD-1
HOP-62 = tested on: HOP-62
M19-MEL = tested on: M19-MEL
OVCAR-8 = tested on: OVCAR-8
A498 = tested on: A498
NCI-H460 = tested on: NCI-H460
OVCAR-5 = tested on: OVCAR-5
RXF 631 = tested on: RXF 631

Structure (SMILES): CCCCCCCCCCCC(=O)OCC(C[As](=O)(O)O)OC(=O)CCCCCCCCCCC (centres undefined)
- GI50 (OVCAR-3): 8.81 µM (inactive)
- GI50 (A549): 8.2 µM (inactive)
- GI50 (IGROV-1): 1.74 µM (inactive)
- GI50 (HCT-116): 5.61 µM (inactive)
- GI50 (COLO 205): 7.67 µM (inactive)
- GI50 (DMS-114): 1.65 µM (inactive)
- GI50 (SF-539): 7.89 µM (inactive)
- GI50 (HOP-18): 3.93 µM (inactive)
- GI50 (CAKI-1): 9.27 µM (inactive)
- GI50 (SK-MEL-5): 1.75 µM (inactive)
- GI50 (MDA-MB-435): 3.46 µM (inactive)
- GI50 (SNB-19): 3.28 µM (inactive)
- GI50 (HL-60): 2.61 µM (inactive)
- GI50 (RPMI-8226): 7.4 µM (inactive)
- GI50 (DMS-273): 2.47 µM (inactive)
- GI50 (OVCAR-4): 15.1 µM (inactive)
- GI50 (TK-10): 14.3 µM (inactive)
- GI50 (SW-620): 12.1 µM (inactive)
- GI50 (HT-29): 7.62 µM (inactive)
- GI50 (EKVX): 7.74 µM (inactive)
- GI50 (ACHN): 2.24 µM (inactive)
- GI50 (DU-145): 17.5 µM (inactive)
- GI50 (UACC-257): 7.52 µM (inactive)
- GI50 (HCC 2998): 6.22 µM (inactive)
- GI50 (SF-295): 10.4 µM (inactive)
- GI50 (SK-OV-3): 13.8 µM (inactive)
- GI50 (NCI/ADR-RES): 21.3 µM (inactive)
- GI50 (SK-MEL-2): 3.92 µM (inactive)
- GI50 (SNB-75): 6.95 µM (inactive)
- GI50 (Malme-3M): 2.48 µM (inactive)
- GI50 (NCI-H522): 2.13 µM (inactive)
- GI50 (KM-20L2): 5.66 µM (inactive)
- GI50 (XF498): 2.9 µM (inactive)
- GI50 (NCI-H23): 5.61 µM (inactive)
- GI50 (MDA-MB-231): 4.54 µM (inactive)
- GI50 (LXFL 529): 2.06 µM (inactive)
- GI50 (BT-549): 7.1 µM (inactive)
- GI50 (KM12): 7.1 µM (inactive)
- GI50 (MDA-N): 4.48 µM (inactive)
- GI50 (SN12C): 2.94 µM (inactive)
- GI50 (Hs-578T): 4.2 µM (inactive)
- GI50 (MOLT-4): 3.96 µM (inactive)
- GI50 (T47D): 14.7 µM (inactive)
- GI50 (UACC-62): 2.03 µM (inactive)
- GI50 (U-251): 1.54 µM (inactive)
- GI50 (SF-268): 5.09 µM (inactive)
- GI50 (PC-3): 3.18 µM (inactive)
- GI50 (SK-MEL-28): 2.96 µM (inactive)
- GI50 (NCI-H226): 16.2 µM (inactive)
- GI50 (SR): 3.64 µM (inactive)
- GI50 (CCRF-CEM): 3.72 µM (inactive)
- GI50 (HCT-15): 8.39 µM
- GI50 (LOX IMVI): 4.76 µM (inactive)
- GI50 (M14): 1.97 µM (inactive)
- GI50 (SNB-78): 2.82 µM (inactive)
- GI50 (RXF 393): 2.43 µM (inactive)
- GI50 (UO-31): 12.4 µM (inactive)
- GI50 (K562): 5.32 µM (inactive)
- GI50 (786-0): 13.4 µM (inactive)
- GI50 (HOP-92): 1.88 µM (inactive)
- GI50 (MCF7): 3.93 µM (inactive)
- GI50 (DLD-1): 15.8 µM (inactive)
- GI50 (HOP-62): 26.9 µM (inactive)
- GI50 (M19-MEL): 4.25 µM (inactive)
- GI50 (OVCAR-8): 11.7 µM (inactive)
- GI50 (A498): 5.15 µM (inactive)
- GI50 (NCI-H460): 4.05 µM (inactive)
- GI50 (OVCAR-5): 18.1 µM (inactive)

Structure (SMILES): CCCCCCCCCCCCCCCCCC(=O)NCC(COP(=O)([O-])OCC[N+](C)(C)C)OCC (centres undefined)
- GI50 (A549): 19.2 µM (inactive)
- GI50 (DMS-114): 18.5 µM (inactive)
- GI50 (SF-539): 17.7 µM (inactive)
- GI50 (SK-MEL-5): 17.7 µM (inactive)
- GI50 (SNB-19): 0.174 µM (active)
- GI50 (DMS-273): 0.137 µM (active)
- GI50 (EKVX): 21.9 µM (inactive)
- GI50 (UACC-257): 18.6 µM (inactive)
- GI50 (SK-OV-3): 19.4 µM (inactive)
- GI50 (Malme-3M): 21.3 µM (inactive)
- GI50 (KM-20L2): 0.237 µM (active)
- GI50 (NCI-H23): 19.7 µM (inactive)
- GI50 (RXF 631): 22.2 µM (inactive)
- GI50 (SK-MEL-28): 18.2 µM (inactive)
- GI50 (LOX IMVI): 24.9 µM (inactive)
- GI50 (UO-31): 19.5 µM (inactive)
